Experimental data reported in patent US10364256B2 (GlaxoSmithKline Intellectual Property Development Limited, priority 2015, dated 2019).
Read-outs that look alike come from different tables or passages of the source.

Columns and labels:
[1] = target: T1, Keap1 Kelch domain (321-609) / TAMRA-labeled 16mer NRF2 peptide (ETGE motif) (Homo sapiens, UniProt Q14145); assay: NRF2-Keap1 FP Assay (Keap1 Kelch fluorescence polarization); type: binding; settings: 20 nM Keap1 (321-609), 8 nM Tamra labeled peptide
T1 construct: the Kelch domain (321-609) of Keap1 is used
Method in brief: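 Compound dilutions (3-fold) were incubated 1 hr at room temperature with 20 nM Keap1 Kelch (321-609) and 8 nM TAMRA-labeled ETGE 16mer peptide. Buffer was 50 mM Tris pH 8.0, 100 mM NaCl, 5 mM MgCl2, 1 mM DTT, 2 mM CHAPS, 0.005% BSA. Fluorescence polarization (mP) was normalized to controls and fitted with a four-parameter equation to give pIC50.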

[2] = tested on: NQO1 specific enzyme activity in BEAS-2B cells (marker for NRF2 activation); assay: BEAS-2B NQO1 MTT Assay; type: cell-based; settings: Homo sapiens
Method in brief: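 BEAS-2B cells treated with compound for 48 h at 37 °C, then lysed; NQO1 activity in lysates measured kinetically by MTT reduction at A570 over 30 min. pEC50 from 3-parameter fit of ΔOD/min versus log concentration; lysate also taken for Cell Titer Glo.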

[3] = target: T2, full length Keap1 protein / full length NRF2 protein (Homo sapiens, UniProt Q14145); assay: NRF2-Keap1 TR-FRET Low Protein Assay; type: binding; settings: 1.25 nM Keap1 FlagHis and 2.5 nM biotin-NRF2 added
T2 construct: full length NRF2 protein and full length Keap1 protein (Keap1 exists a dimer) are used; His
Method in brief: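 Flag-tagged full-length Keap1 was preincubated with compound (3-fold series) for 2.25 h at 37 °C in Tris pH 8.0/MgCl2/NaCl/BSA/DTT/CHAPS. Biotin-Avi-NRF2 (added at 2.5 nM) was then bound for 1.25 h at 4 °C. Eu-streptavidin/anti-Flag-APC TR-FRET (665/615 nm) was read after 1 h at RT, and pIC50 came from a four-parameter fit.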

[4] = compound incubated 48 hours, read-out: EC50 (NQO1 specific enzyme activity induction)
[5] = BEAS-2B, 48 h, compound incubated 48 hours, read-out: EC50 (NQO1 specific enzyme activity induction)

T2 sequence (Q14145 whole entry): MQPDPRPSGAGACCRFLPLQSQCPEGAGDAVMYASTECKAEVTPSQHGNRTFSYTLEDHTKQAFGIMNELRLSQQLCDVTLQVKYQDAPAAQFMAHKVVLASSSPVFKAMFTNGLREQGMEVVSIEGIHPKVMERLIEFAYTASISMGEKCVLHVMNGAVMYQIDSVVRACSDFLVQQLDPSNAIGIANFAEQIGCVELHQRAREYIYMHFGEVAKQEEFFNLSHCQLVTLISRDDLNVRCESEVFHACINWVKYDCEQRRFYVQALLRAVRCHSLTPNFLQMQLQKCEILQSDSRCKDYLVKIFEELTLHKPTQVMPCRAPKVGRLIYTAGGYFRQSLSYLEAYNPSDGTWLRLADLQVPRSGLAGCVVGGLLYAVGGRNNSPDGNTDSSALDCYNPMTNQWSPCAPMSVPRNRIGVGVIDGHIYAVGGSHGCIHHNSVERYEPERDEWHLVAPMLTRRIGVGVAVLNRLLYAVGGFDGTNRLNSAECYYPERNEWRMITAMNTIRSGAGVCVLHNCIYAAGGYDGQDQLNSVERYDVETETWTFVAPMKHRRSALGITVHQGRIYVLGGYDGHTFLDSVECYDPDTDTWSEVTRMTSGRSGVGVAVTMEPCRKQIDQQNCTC
T1 sequence (Q14145 321-609): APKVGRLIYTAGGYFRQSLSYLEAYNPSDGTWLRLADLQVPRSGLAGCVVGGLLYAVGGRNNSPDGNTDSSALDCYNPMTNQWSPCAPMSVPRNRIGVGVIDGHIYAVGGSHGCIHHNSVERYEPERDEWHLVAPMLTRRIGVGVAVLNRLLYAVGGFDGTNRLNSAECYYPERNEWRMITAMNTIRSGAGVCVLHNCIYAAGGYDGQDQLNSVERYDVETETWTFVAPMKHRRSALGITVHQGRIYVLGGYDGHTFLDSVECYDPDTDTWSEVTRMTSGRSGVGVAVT

SMILES	IC50 [1] [nM]	IC50 [3] [nM]	EC50 [2, 4] [nM]	EC50 [2, 5] [nM]	EC50 ([2]; in two determinations (footnote ϕ), read-out: EC50 in two determinations) [nM]
CC(Oc1cccc(-c2cccc(-n3ncc(C(=O)O)c3[C@H]3C[C@@H]3c3cn(C(C)C)nn3)c2)c1)C1CCCCC1 (mixture of isomers) [Example 195, 1-(3′-(1-cyclohexylethoxy)-[1,1′-biphenyl]-3-yl)-5-((1,2-trans)-2-(1-isopropyl-1H-1,2,3-triazol-4-yl)cyclopropyl)-1H-pyrazole-4-carboxylic acid]	100 to 1000	10 to 100	10 to 100		
Cc1cc([C@@H]2C[C@H]2c2c(C(=O)O)cnn2-c2cccc(-c3cccc(O[C@@H](C)C4CCCCC4)c3)c2)on1 [Example 115, 1-(3′-((S)-1-cyclohexylethoxy)-[1,1′-biphenyl]-3-yl)-5-((1R,2R)-2-(3-methylisoxazol-5-yl)cyclopropyl)-1H-pyrazole-4-carboxylic Acid]	100 to 1000	100 to 1000	100 to 1000		
Cc1c(OCC2CCCCC2)cccc1-c1cccc(-n2ncc(C(=O)O)c2[C@H]2C[C@@H]2c2cn(C)nn2)c1 (racemic) [Example 72, 1-(3′-(Cyclohexylmethoxy)-2′-methyl-[1,1′-biphenyl]-3-yl)-5-(trans-2-(1-methyl-1H-1,2,3-triazol-4-yl)cyclopropyl)-1H-pyrazole-4-carboxylic Acid]	100 to 1000	100 to 1000	10 to 100		
CC(Oc1cccc(-c2cccc(-n3ncc(C(=O)O)c3[C@H]3C[C@@H]3c3cn(C)nn3)c2)c1)[C@H]1CC[C@H](C(F)(F)F)CC1 (mixture of isomers) [Example 180, 5-((1,2-trans)-2-(1-Methyl-1H-1,2,3-triazol-4-yl)cyclopropyl)-1-(3′-((R)-1-((1R,4R)-4-(trifluoromethyl)cyclohexyl)ethoxy)-[1,1′-biphenyl]-3-yl)-1H-pyrazole-4-carboxylic acid]	100 to 1000	10 to 100	1 to 10		
C[C@H](Oc1cccc(-c2cccc(-n3ncc(C(=O)O)c3[C@H]3C[C@H]3c3cn(C)nn3)c2)c1)C1CCCCC1 (racemic) [Example 101, 1-(3′-((S)-1-cyclohexylethoxy)-[1,1′-biphenyl]-3-yl)-5-(cis-2-(1-methyl-1H-1,2,3-triazol-4-yl)cyclopropyl)-1H-pyrazole-4-carboxylic Acid]	> 10000	1000 to 10000		100 to 1000	
C[C@H](Oc1cccc(-c2cccc(-n3ncc(C(=O)O)c3[C@@H]3C[C@H]3c3cn(C)nn3)c2)c1)C1CCCCC1 [Example 64, 1-(3′-((S)-1-Cyclohexylethoxy)-[1,1′-biphenyl]-3-yl)-5-((1R,2R)-2-(1-methyl-1H-1,2,3-triazol-4-yl)cyclopropyl)-1H-pyrazole-4-carboxylic Acid]	10 to 100	< 10		10 to 100	
CC[C@@H]1CN(Cc2cccc(-c3cccc(-n4ncc(C(=O)O)c4[C@@H]4C[C@H]4c4cn(C)nn4)c3)c2)S(=O)(=O)c2ccccc2O1 [Example 255, 1-(3′-(((R)-4-Ethyl-1,1-dioxido-3,4-dihydro-2H-benzo[b][1,4,5]oxathiazepin-2-yl)methyl)-[1,1′-biphenyl]-3-yl)-5-(trans-2-(1-methyl-1H-1,2,3-triazol-4-yl)cyclopropyl)-1H-pyrazole-4-carboxylic Acid]	10 to 100	< 10	100 to 1000		> 1000
C[C@H](Oc1cccc(-c2cccc(-n3ncc(C(=O)O)c3[C@H]3C[C@@H]3c3c[nH]nn3)c2)c1)C1CCCCC1 [Example 100, 5-((1S,2S)-2-(1H-1,2,3-Triazol-4-yl)cyclopropyl)-1-(3′-((S)-1-cyclohexylethoxy)-[1,1′-biphenyl]-3-yl)-1H-pyrazole-4-carboxylic Acid]	1000 to 10000	100 to 1000	100 to 1000		
CCC1COc2ccccc2CN1Cc1cccc(-c2cccc(-n3ncc(C(=O)O)c3[C@H]3C[C@@H]3c3cn(C)nn3)c2)c1 (mixture of isomers) [Example 118, 1-(3′-((3-Ethyl-2,3-dihydrobenzo[f][1,4]oxazepin-4(5H)-yl)methyl)-[1,1′-biphenyl]-3-yl)-5-((1,2-trans)-2-(1-methyl-1H-1,2,3-triazol-4-yl)cyclopropyl)-1H-pyrazole-4-carboxylic Acid]	10 to 100	< 10	100 to 1000		

Continued, in another order:

IC50 [1] [nM]	IC50 [3] [nM]	SMILES	EC50 [2, 4] [nM]	EC50 [2, 5] [nM]	EC50 ([2]; in two determinations (footnote ϕ), read-out: EC50 in two determinations) [nM]
10 to 100	10 to 100	C[C@H](Oc1cccc(-c2cccc(-n3ncc(C(=O)O)c3[C@@H]3C[C@H]3c3cn(CCN(C)C)nn3)c2)c1)C1CCCCC1 (racemic) [Example 88, 1-(3′-((S)-1-Cyclohexylethoxy)-[1,1′-biphenyl]-3-yl)-5-(trans-2-(1-(2-(dimethylamino)ethyl)-1H-1,2,3-triazol-4-yl)cyclopropyl)-1H-pyrazole-4-carboxylic acid]	10 to 100		
10 to 100	10 to 100	Cn1cc([C@@H]2C[C@H]2c2c(C(=O)O)cnn2-c2cccc(-c3cccc(S(=O)(=O)N4CCCCC4)c3)c2)nn1 (racemic) [Example 143, 5-((1,2-trans)-2-(1-Methyl-1H-1,2,3-triazol-4-yl)cyclopropyl)-1-(3′-(piperidin-1-ylsulfonyl)-[1,1′-biphenyl]-3-yl)-1H-pyrazole-4-carboxylic Acid]	100 to 1000		
10 to 100	10 to 100	Cn1cc([C@@H]2C[C@H]2c2c(C(=O)O)cnn2-c2cccc(-c3cccc(CN4CCOc5ccccc5C4)c3)c2)nn1 (racemic) [Example 256, 1-(3′-((2,3-Dihydrobenzo[f][1,4]oxazepin-4(5H)-yl)methyl)-[1,1′-biphenyl]-3-yl)-5-(trans-2-(1-methyl-1H-1,2,3-triazol-4-yl)cyclopropyl)-1H-pyrazole-4-carboxylic Acid]	1000 to 10000		
10 to 100	10 to 100	C[C@@H](Oc1cccc(-c2cccc(-n3ncc(C(=O)O)c3[C@@H]3C[C@H]3c3cn(C)nn3)c2)c1)C1CCCCCC1 [Example 74, 1-(3′-((R)-1-Cycloheptylethoxy)-[1,1′-biphenyl]-3-yl)-5-((1R,2R)-2-(1-methyl-1H-1,2,3-triazol-4-yl)cyclopropyl)-1H-pyrazole-4-carboxylic Acid]	10 to 100		
10 to 100	10 to 100	CN1CCN(Cc2cccc(-c3cccc(-n4ncc(C(=O)O)c4[C@@H]4C[C@H]4c4cn(C)nn4)c3)c2)S(=O)(=O)c2ccccc21 (racemic) [Example 140, 1-(3′-((5-methyl-1,1-dioxido-4,5-dihydrobenzo[f][1,2,5]thiadiazepin-2(3H)-yl)methyl)-[1,1′-biphenyl]-3-yl)-5-((1,2- trans)-2-(1-methyl-1H-1,2,3-triazol-4-yl)cyclopropyl)-1H-pyrazole-4-carboxylic acid]	1000 to 10000		
10 to 100	10 to 100	C[C@@H]1Cc2ccccc2S(=O)(=O)N(Cc2cccc(-c3cccc(-n4ncc(C(=O)O)c4[C@@H]4C[C@H]4c4cn(C)nn4)c3)c2)C1 [Example 130, 1-(3′-(((R)-4-Methyl-1,1-dioxido-4,5-dihydrobenzo[f][1,2]thiazepin-2(3H)-yl)methyl)-[1,1′-biphenyl]-3-yl)-5-((1R,2R)-2-(1-methyl-1H-1,2,3-triazol-4-yl)cyclopropyl)-1H-pyrazole-4-carboxylic Acid]	100 to 1000		
